Assay [1] has as its target T1, 5HT3-R (Homo sapiens, UniProt P46098).
T1 sequence (P46098 24-478): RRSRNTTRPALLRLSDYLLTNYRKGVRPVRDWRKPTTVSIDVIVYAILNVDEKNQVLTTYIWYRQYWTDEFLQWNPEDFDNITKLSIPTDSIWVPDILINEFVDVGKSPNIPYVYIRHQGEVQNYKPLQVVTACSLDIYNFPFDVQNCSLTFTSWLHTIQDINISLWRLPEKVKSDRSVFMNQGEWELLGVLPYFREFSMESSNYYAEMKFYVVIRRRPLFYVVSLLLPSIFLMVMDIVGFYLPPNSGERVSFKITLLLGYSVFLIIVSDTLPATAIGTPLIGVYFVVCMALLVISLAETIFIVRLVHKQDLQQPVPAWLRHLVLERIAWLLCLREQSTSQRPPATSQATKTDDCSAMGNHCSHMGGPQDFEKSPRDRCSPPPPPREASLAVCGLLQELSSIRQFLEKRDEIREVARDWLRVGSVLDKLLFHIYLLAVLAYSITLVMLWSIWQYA
As to the kind of experiment: Agonist potency at 5HT3-R. In kind it is cell-based.

Assay [2] deals with T2, α7-GlyR (Homo sapiens, UniProt P36544). As to the kind of experiment: cell-based.
Assay [3] has as its target α4β2 nAChR (Homo sapiens, UniProt P17787+P43681). As to the kind of experiment: Agonist potency at α4β2 nAChR.
For assay [4], the target named is T2, α7-GlyR.
Assay [5] deals with T3, α7-5HT3 (Homo sapiens, UniProt P36544, M226I/T225I).
Assay [6] has as its system α7GlyR G175K / A298G mutant chimeric channels. Type of assay: cell-based, human.
Assay [7] deals with α7GABAc W298A (GABAA-ρ). As to the kind of experiment: Agonist potency at α7GABAc channel with W298A (Table 7). In kind it is cell-based, human. The conditions noted are these: a7GABAc Q79G L141F W298A.
For assay [8], the target named is T3, α7-5HT3. This is another data set of the same source.
In assay [9] the test system is mice expressing PSAM^4-GlyR unilaterally in SNr. As to the kind of experiment: Unilateral SNr silencing rotation assay. Type of assay: in vivo, mouse. The conditions noted are these: SNr silencing rotation assay in mice.
The mark [10] stands for this setting: read-out: α7-5HT3 EC50, HEK cells, Table 3.

Like-named read-outs stand apart in the source and are kept apart here. Where only a bound is given, the exact number is not on record here.

T3 sequence (P36544 with tags, fused parts or gaps T225I/M226I limits assumed): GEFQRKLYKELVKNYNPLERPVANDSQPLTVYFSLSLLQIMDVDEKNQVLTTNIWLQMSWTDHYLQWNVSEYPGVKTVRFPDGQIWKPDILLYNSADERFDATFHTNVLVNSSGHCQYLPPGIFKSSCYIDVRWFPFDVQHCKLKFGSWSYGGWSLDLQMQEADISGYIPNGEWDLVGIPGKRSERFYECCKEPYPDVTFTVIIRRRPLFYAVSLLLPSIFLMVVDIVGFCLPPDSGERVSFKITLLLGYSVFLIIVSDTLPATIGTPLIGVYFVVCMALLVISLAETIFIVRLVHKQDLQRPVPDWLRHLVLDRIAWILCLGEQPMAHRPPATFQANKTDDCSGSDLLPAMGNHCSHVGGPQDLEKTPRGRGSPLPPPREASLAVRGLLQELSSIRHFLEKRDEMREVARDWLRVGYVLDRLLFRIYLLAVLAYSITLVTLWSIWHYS
T2 sequence (P36544 with tags, fused parts or gaps): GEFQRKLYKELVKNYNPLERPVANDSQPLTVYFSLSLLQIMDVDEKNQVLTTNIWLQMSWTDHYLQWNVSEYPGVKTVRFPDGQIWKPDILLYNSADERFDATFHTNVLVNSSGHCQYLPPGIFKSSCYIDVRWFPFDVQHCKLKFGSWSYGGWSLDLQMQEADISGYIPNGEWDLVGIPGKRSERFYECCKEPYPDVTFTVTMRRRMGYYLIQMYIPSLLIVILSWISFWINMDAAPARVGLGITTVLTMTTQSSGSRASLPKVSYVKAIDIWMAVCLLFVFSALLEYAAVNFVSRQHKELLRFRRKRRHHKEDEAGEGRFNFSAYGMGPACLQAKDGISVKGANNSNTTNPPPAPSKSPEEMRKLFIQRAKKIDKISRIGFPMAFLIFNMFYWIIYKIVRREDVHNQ
Chain of α4β2 nAChR (P43681 29-627 limits assumed): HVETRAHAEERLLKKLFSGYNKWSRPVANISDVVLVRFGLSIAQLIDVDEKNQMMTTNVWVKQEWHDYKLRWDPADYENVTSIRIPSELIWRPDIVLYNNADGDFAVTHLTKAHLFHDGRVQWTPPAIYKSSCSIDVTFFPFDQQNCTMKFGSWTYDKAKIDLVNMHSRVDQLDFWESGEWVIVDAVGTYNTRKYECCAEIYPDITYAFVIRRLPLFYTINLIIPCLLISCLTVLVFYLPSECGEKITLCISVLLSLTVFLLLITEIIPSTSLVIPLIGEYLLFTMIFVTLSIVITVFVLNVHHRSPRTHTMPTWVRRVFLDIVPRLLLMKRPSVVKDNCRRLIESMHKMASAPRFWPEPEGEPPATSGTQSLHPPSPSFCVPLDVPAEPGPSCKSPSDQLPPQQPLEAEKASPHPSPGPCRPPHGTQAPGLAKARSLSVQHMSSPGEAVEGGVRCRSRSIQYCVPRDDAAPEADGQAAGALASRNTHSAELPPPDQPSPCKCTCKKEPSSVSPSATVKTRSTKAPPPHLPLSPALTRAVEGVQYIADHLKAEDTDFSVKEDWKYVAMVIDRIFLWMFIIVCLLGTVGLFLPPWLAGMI
Chain of α4β2 nAChR (P17787 26-502): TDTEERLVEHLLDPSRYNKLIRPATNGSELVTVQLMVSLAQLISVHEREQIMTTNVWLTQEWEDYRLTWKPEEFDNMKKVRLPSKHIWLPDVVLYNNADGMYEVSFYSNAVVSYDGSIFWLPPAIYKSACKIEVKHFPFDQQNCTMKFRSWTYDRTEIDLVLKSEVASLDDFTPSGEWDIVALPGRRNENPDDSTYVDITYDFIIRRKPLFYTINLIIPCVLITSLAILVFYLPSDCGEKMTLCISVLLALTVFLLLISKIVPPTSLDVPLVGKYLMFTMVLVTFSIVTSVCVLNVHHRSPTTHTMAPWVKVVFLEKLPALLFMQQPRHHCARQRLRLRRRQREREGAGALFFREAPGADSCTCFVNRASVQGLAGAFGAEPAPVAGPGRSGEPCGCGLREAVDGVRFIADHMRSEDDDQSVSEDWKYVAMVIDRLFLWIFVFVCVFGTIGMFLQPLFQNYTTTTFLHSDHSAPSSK

Turning to `c1cncc(-c2cnc3cc4c(cc3n2)C2CNCC4C2)c1` (centres unmarked) [compound 804], the EC50 in assay [1] ([…], 5HT3-R, Table 10) is 2 µM; in assay [2], greater than 30 µM; in assay [3] ([…]) it was 4.8 µM.

Turning to `c1ccn(-c2cnc3cc4c(cc3n2)C2CNCC4C2)c1` (centres unmarked) [compound 799], the EC50 in [1] (5HT3-R, Table 10) was 11.7 µM; in assay [2] it was greater than 100 µM; in assay [3] ([…], α4β2 nAChR, Table 10), 3.5 µM.

Regarding `O=C(N[C@@H]1CN2CCC1CC2)c1ccc(C(F)(F)F)cn1` [compound 0295], the EC50 in [4] and in assay [5] (setting [10]) was greater than 100 µM in each case.

Take `c1cn(-c2cnc3cc4c(cc3n2)C2CNCC4C2)cn1` (centres unmarked) [compound 800]: the EC50 in [1] (5HT3-R, Table 10) is 3.5 µM; in assay [2], greater than 30 µM; in assay [3] ([…], α4β2 nAChR, Table 10), 13.9 µM.

Turning to `Clc1ccc(C2CC3CCC2N3)cn1` (centres unmarked) [Epibatidine], the EC50 in assay [6] (α7GlyR Q79G A298G G175K Y115F; read-out: Agonist potency) amounted to 0.011 µM; in assay [6] (α7GlyR Q79G A298G P216I; read-out: Agonist potency), 0.05 µM; in [6] (α7GlyR Q79G A298G Y115F K395 K396A; read-out: Agonist potency), 0.15 µM; in [6] (α7GlyR Q79G G175K A298G; read-out: Agonist potency), 0.0023 µM; in assay [6] (α7GlyR Q79G W77F A298G; read-out: Agonist potency), 0.37 µM; in [6] (α7GlyR R27D E41R Q79G Y115F; read-out: Agonist potency) it was 0.267 µM. In [7], this compound showed an EC50 of 0.42 µM.

For `Cc1nc2cc3c(cc2nc1N(C)C)C1CNCC3C1` (centres unmarked) [compound 794], the EC50 in [1] (5HT3-R, Table 10) is 1.7 µM; in assay [2], greater than 30 µM; in assay [3] ([…], α4β2 nAChR, Table 10) it was greater than 30 µM.

For the compound `CN1C2CCC1CC(NC(=S)c1c[nH]c3ccccc13)C2` (centres unmarked) [compound 0542], the EC50 in assay [5] (setting [10]) amounted to 3.8 µM.

Take `O=C(NC1CN2CCC1CC2)c1ccc(C(F)(F)F)nc1` (centres unmarked) [compound 0296]: the EC50 in assay [5] (setting [10]) was greater than 100 µM.

`c1cncc(-c2nc3cc4c(cc3[nH]2)C2CNCC4C2)c1` (centres unmarked) [compound 786, 2-(pyridin-3-yl)-1,5,6,7,8,9-hexahydro-5,9-methanoimidazo[4′,5′:4,5]benzo[1,2-d]azepine]: the EC50 in [8] and in assay [2] was greater than 100 µM in each case.

On to `O=C(NC1C2CCN(CC2)C1Cc1cccnc1)c1ccc(C(F)(F)F)cc1` (mixture of isomers) [compound 0436], for which the values for the EC50 in assay [4] and in assay [5] (setting [10]) were 0.31 µM and 0.84 µM, respectively.

With `Cc1nc2cc3c(cc2nc1-c1ccncc1)C1CNCC3C1` (centres unmarked) [compound 803], the EC50 in assay [1] ([…], 5HT3-R, Table 10) is 0.75 µM; in assay [2], greater than 30 µM; in [3] ([…]), 14 µM.

Take `O=C(N[C@@H]1CN2CCC1CC2)c1c[nH]c2ccccc12` [compound 0676]: in assay [5] (setting [10]), the EC50 stood at 0.03 µM.

Regarding `Cc1nc2cc3c(cc2nc1Cn1cncn1)C1CNCC3C1` (centres unmarked) [compound 807], the EC50 in assay [1] (5HT3-R, Table 10) was 0.57 µM; in [8] it was greater than 30 µM; in assay [2], greater than 30 µM; in assay [3] ([…], α4β2 nAChR, Table 10), greater than 30 µM.

In the case of `Cc1nc2cc3c(cc2nc1-c1cccnc1)C1CNCC3C1` (centres unmarked) [compound 802], the EC50 in assay [1] ([…], 5HT3-R, Table 10) was 1.5 µM; in assay [1] (potency for 5HT3-R) it was greater than 1 µM; in assay [2], greater than 30 µM; in assay [3] ([…]) it was greater than 30 µM; in assay [3] (potency for α4β2 nAChR), greater than 10 µM.

As for `Cc1nc2cc3c(cc2nc1-n1cncn1)C1CNCC3C1` (centres unmarked) [compound 808], the EC50 in [1] (5HT3-R, Table 10) was 12.5 µM; in [1] (read-out: potency for 5HT3-R), greater than 1 µM; in assay [8], greater than 30 µM; in assay [2], greater than 30 µM; in [3] ([…], α4β2 nAChR, Table 10), greater than 30 µM; in assay [3] (potency for α4β2 nAChR) it was greater than 10 µM.

Consider `Cc1ccccc1-c1cnc2cc3c(cc2n1)C1CC3CN(C)C1` (centres unmarked) [compound 782], for which the EC50 in [1] (5HT3-R, Table 10) is greater than 30 µM; in assay [8], greater than 100 µM; in assay [2] it was greater than 100 µM.

For `Cc1nc2cc3c(cc2nc1Cn1cccn1)C1CNCC3C1` (centres unmarked) [compound 812], the EC50 was 11 µM in [1] (5HT3-R, Table 10); greater than 100 µM in assay [8]; greater than 100 µM in [2]; greater than 100 µM in assay [3] ([…], α4β2 nAChR, Table 10).

As to `O=c1[nH]c2cc3c(cc2nc1-c1ccccc1)C1CNCC3C1` (centres unmarked) [compound 784], the EC50 in assay [1] (5HT3-R, Table 10) was 6.2 µM; in [8], greater than 30 µM; in assay [2], greater than 30 µM.

`S=C(Nc1ccc(Cl)cc1)NC1CN2CCC1CC2` (centres unmarked) [compound 0354]: the partial agonist activity in assay [5] (HEK cells, Table 3) came out at 1.4 partial.

`CN1C2CCCC1CC(NC(=O)c1nn(C)c3ccccc13)C2` (centres unmarked) [Granisetron, reference compound]: the activation of channel result in assay [5] is given as “does not activate”.

As to `c1c2c(cc3nc4c(nc13)CCCC4)C1CNCC2C1` [compound 785], the EC50 in assay [1] (5HT3-R, Table 10) is 10.2 µM; in assay [2], greater than 100 µM.

`c1ncn(-c2cnc3cc4c(cc3n2)C2CNCC4C2)n1` (centres unmarked) [compound 801]: the EC50 in [1] (5HT3-R, Table 10) was 4.4 µM; in assay [2], greater than 30 µM; in [3] ([…], α4β2 nAChR, Table 10) it was 26 µM.

For `Cn1c(=O)cnc2cc3c(cc21)C1CNCC3C1` (centres unmarked) [compound 792], the EC50 in [1] (5HT3-R, Table 10) is 40.5 µM; in assay [8], greater than 30 µM; in assay [4] it was greater than 30 µM.

Take `FC(F)(F)c1cnc2cc3c(cc2n1)C1CNCC3C1` (centres unmarked) [compound 788]: the EC50 in assay [1] (5HT3-R, Table 10) was 41 µM; in assay [8], greater than 100 µM; in assay [2], greater than 100 µM; in assay [3] ([…], α4β2 nAChR, Table 10), greater than 30 µM.

For the compound `Cc1ccccc1-c1cnc2cc3c(cc2n1)C1CNCC3C1` (centres unmarked) [compound 780], the EC50 is 10.6 µM in [8] and greater than 100 µM in [2].

On to `Cc1nc2cc3c(cc2nc1-n1ccnc1)C1CNCC3C1` (centres unmarked) [compound 798], for which the EC50 in assay [1] (5HT3-R, Table 10) was 1.1 µM; in [8] it was greater than 30 µM; in assay [2], greater than 30 µM; in assay [3] ([…], α4β2 nAChR, Table 10), 28 µM.

For `COc1ccc(OC)c(C(=O)NC2C3CCN(CC3)C2Cc2cccnc2)c1` (mixture of isomers) [compound 0434], the EC50 in assay [4] and in assay [5] (setting [10]) was greater than 10 µM each time.

Regarding `c1cc(-c2cnc3cc4c(cc3n2)C2CNCC4C2)ccn1` (centres unmarked) [compound 805], the EC50 in assay [1] ([…], 5HT3-R, Table 10) was 1 µM; in [2], greater than 30 µM; in assay [3] ([…]), 4.9 µM.

In turn, `CCOc1cnc2cc3c(cc2n1)C1CNCC3C1` (centres unmarked) [compound 815] gave an In vivo potency in assay [9] of 0.1 mpk. For the same compound, the EC50 was greater than 100 µM in assay [4], greater than 30 µM in assay [3] (read-out: EC50MP) and greater than 100 µM in assay [5] (read-out: EC50MP). In [3], the “α4β2 nAChR agonism” value was “do not show evident α4β2 nAChR agonism”.

Take `CCN(CC)c1nc2cc3c(cc2nc1C)C1CNCC3C1` (centres unmarked) [compound 795]: the EC50 in assay [1] (5HT3-R, Table 10) is 1.1 µM; in assay [1] (read-out: potency for 5HT3-R) it was greater than 1 µM; in assay [2], greater than 30 µM; in [3] ([…], α4β2 nAChR, Table 10) it was greater than 30 µM; in assay [3] (potency for α4β2 nAChR), greater than 10 µM.

As for `O=c1cccc2n1C[C@@H]1CNC[C@H]2C1` [Cytisine], the EC50 is 4.6 µM in assay [6] (read-out: Agonist potency; α7GlyR Q79G A298G G175K Y115F); 5.5 µM in [6] (read-out: Agonist potency; α7GlyR Q79G A298G P216I); greater than 30 µM in [6] (read-out: Agonist potency; α7GlyR Q79G A298G Y115F K395 K396A); 0.134 µM in assay [6] (read-out: Agonist potency; α7GlyR Q79G G175K A298G); 14.1 µM in assay [6] (read-out: Agonist potency; α7GlyR Q79G W77F A298G); greater than 30 µM in [6] (read-out: Agonist potency; α7GlyR R27D E41R Q79G Y115F). In assay [7], this compound returned an EC50 of 13.3 µM.

Consider `Cc1nc2cc3c(cc2[nH]c1=O)C1CNCC3C1` (centres unmarked) [compound 783], for which the EC50 was 0.43 µM in assay [1] (5HT3-R, Table 10); greater than 100 µM in [2]; 43 µM in [3] ([…]).

In the case of `COc1nc2cc3c(cc2nc1-c1ccccc1)C1CNCC3C1` (centres unmarked) [compound 789], the EC50 in assay [1] (5HT3-R, Table 10) is 0.51 µM; in assay [8], greater than 100 µM; in assay [2] it was greater than 100 µM; in [3] ([…], α4β2 nAChR, Table 10), greater than 30 µM.

Take `Cc1nc2cc3c(cc2n(C)c1=O)C1CNCC3C1` (centres unmarked) [compound 790]: the EC50 in assay [1] (5HT3-R, Table 10) was 4.3 µM; in assay [8] it was greater than 100 µM; in assay [2] it was greater than 100 µM; in assay [3] ([…], α4β2 nAChR, Table 10), greater than 30 µM.

As to `COc1cnc2cc3c(cc2n1)C1CNCC3C1` (centres unmarked) [compound 793], the figures for the EC50 in assay [1] and in [4] were 0.19 µM and 19 µM, respectively.

As to `O=C(Nc1ccccc1)N[C@@H]1CN2CCC1CC2` [compound 0353], the EC50 is 0.27 µM in [4] and 0.65 µM in [5] (setting [10]).

Regarding `COc1nc2cc3c(cc2nc1C)C1CNCC3C1` (centres unmarked) [compound 791], the EC50 in assay [1] (5HT3-R, Table 10) was 0.17 µM; in [2] it was greater than 30 µM; in assay [3] ([…], α4β2 nAChR, Table 10), greater than 30 µM.

Values taken from patent US12247064B2, “Modified ligand-gated ion channels and methods of use” (Howard Hughes Medical Institute, priority 2017, dated 2025).
